Tests used:
[1] = rats, Strawn 1999, cited from earlier work
caspase-3 = test: Caspase-3 activity in A549 cell lysates, fluorometric assay; assay type: cell-based, human; conditions: A549 cells, 100 nM; maximal at 16 and 24 h
Experimental: The specificity of the activity of each caspase substrate was also verified by assays in the presence of specific inhibitors. […] Caspase-3 activity was measured by a fluorometric assay using Ac-DEVD-AFC (Acetylated-Asp-Glu-Val-Asp-7-amino-4-trifluoromethylcoumarin) (SEQ ID NO: 9) as a specific substrate for caspase-3 and Z-DEVD-CHO as a selective caspase-3 inhibitor. Caspase-8 activity was measured by a fluorometric assay using Ac-LETD-AFC (Acetylated-Leu-Glu-Thr-Asp-7-amino-4-trifluoromethylcoumarin) (SEQ ID NO: 10) as a specific substrate and Z-LETD-CHO as a selective caspase-8 inhibitor. The data are presented as relative fluorescence units (RFU).

COX-1 mRNA = COX-1 mRNA in A549 cells; assay type: cell-based, human; conditions: quiescent A549 cells, 100 nM, 2, 4, or 8 h
Experimental: (§1) For reverse-transcriptase real-time PCR, RNA was isolated from cells or tissue, using the TRIzol reagent (GIBCO Invitrogen Corp., Carlsbad, Calif.), as directed by the manufacturer. The RNA concentration and integrity were assessed using an Agilent 2100 Bioanalyzer with an RNA 6000 nano LabChip (Agilent Technologies, Palo Alto, Calif.). Approximately 1 μg of total RNA was reverse transcribed using avian myeloblastosis virus reverse transcriptase (RT) in a 20 μL mixture containing deoxyribonucleotides, random hexamers and RNase inhibitor in RT buffer. Heating the RT reaction product at 95° C. terminated the reaction. For real-time polymerase chain reaction (PCR), 2 μL of the resultant cDNA was added to TaqMan Universal PCR Master Mix (Applied Biosystems, Foster City, Calif.) with a gene-specific primer/probe set (Applied Biosystems, Foster City, Calif.) and amplification was performed on an ABI 7000 Sequence Detection System. The mixtures were heated at 50° C. for 2 min, at 95° C. for 10 min followed by 40 cycles at 95° C. for 15 sec and 60° C. for 1 min. […] The results were quantified as Ct values, where Ct is defined as the threshold cycle of PCR at which amplified product is first detected, and expressed as the ratio of target/control (Relative Gene Expression).

[2] = system: A549 human lung tumor xenografts; test: A549 human lung tumor xenograft in athymic mice, intravenous infusion; assay type: in vivo, mouse
Experimental: For reverse-transcriptase real-time PCR, RNA was isolated from cells or tissue, using the TRIzol reagent (GIBCO Invitrogen Corp., Carlsbad, Calif.), as directed by the manufacturer. The RNA concentration and integrity were assessed using an Agilent 2100 Bioanalyzer with an RNA 6000 nano LabChip (Agilent Technologies, Palo Alto, Calif.). Approximately 1 μg of total RNA was reverse transcribed using avian myeloblastosis virus reverse transcriptase (RT) in a 20 μL mixture containing deoxyribonucleotides, random hexamers and RNase inhibitor in RT buffer. Heating the RT reaction product at 95° C. terminated the reaction. For real-time polymerase chain reaction (PCR), 2 μL of the resultant cDNA was added to TaqMan Universal PCR Master Mix (Applied Biosystems, Foster City, Calif.) with a gene-specific primer/probe set (Applied Biosystems, Foster City, Calif.) and amplification was performed on an ABI 7000 Sequence Detection System. The mixtures were heated at 50° C. for 2 min, at 95° C. for 10 min followed by 40 cycles at 95° C. for 15 sec and 60° C. for 1 min. All reactions were performed in triplicate and 18S ribosomal RNA, amplified using the TaqMan Ribosomal RNA Control Kit (Applied Biosystems), served as an internal control. The results were quantified as Ct values, where Ct is defined as the threshold cycle of PCR at which amplified product is first detected, and expressed as the ratio of target/control (Relative Gene Expression).
Quiescent A549 lung cancer cells or tumor tissue cut into approximately 1-2 mm^2 size pieces were homogenized in phosphate-buffered saline (PBS; 50 mM NaPO4, pH=7.2, 100 mM NaCl). Plasma membranes were isolated by centrifugation and solubilized by boiling in 3% SDS-10% B-mercaptoethanol. PBS was added to the membrane fraction to solubilize the proteins. The protein concentration was measured by a modification of the Lowry method. Solubilized protein (20 μg/well) from saline- and Ang-(1-7)-treated animals were separated by SDS-polyacrylamide gel electrophoresis and transferred to polyvinyl membranes (Amersham Pharmacia, Piscataway, N.J.). Non-specific binding was blocked with 5% blotto (5% evaporated milk, 0.1% Triton X-100 in Tris-buffered saline (TBS; 50 mM Tris-HCl, pH 7.4, 50 mM NaCl). The membranes were incubated with a COX-2 antibody (1:1000; Cayman Chemicals, Ann Arbor, Mich.) followed by a goat anti-rabbit antibody (1:1000; Amersham, Piscataway, N.J.) coupled to horseradish peroxidase. Chemiluminescence reagents were added to visualize the immunoreactive bands, which were quantified by densitometry. An antibody to actin (Sigma, St Louis, Mo.) served as the loading control.
Male or female athymic mice (15-20 g, 2-4 weeks of age, Charles River Laboratory, Wilmington, Mass.) were housed in cages with HEPA-filtered air (12-hour light/dark cycle) and ad libitum access to food and autoclaved water. All procedures complied with the policies of the Wake Forest University Animal Care and Use Committee. Mice were inoculated subcutaneously in the lower left flank with approximately 1.9×10^6 A549 lung cancer cells or ZR-75-1 breast cancer cells suspended in 200 μL of cold Matrigel (BD Biosciences, Bedford, Mass.). […] The mice were anesthetized by inhalation with 1.5% isoflurane. […] The minipumps also contained heparin (25 U/mL) to maintain patency of the catheter. On day 28 of the infusion, the animals were anesthetized with halothane and sacrificed by decapitation. Alternatively, the mice received daily subcutaneous injections of Ang-(1-7) in saline or saline alone.
Tumors were fixed with 4% paraformaldehyde for 24 h and incubated in 70% ethanol for 48 h prior to embedding in paraffin. The embedded tumors were cut into five micron thick sections and stained with hematoxylin and eosin to determine morphology. […]

caspase-9 = test: Caspase-9 activity in A549 cell lysates; assay type: cell-based, human; conditions: A549 cells, 100 nM
ERK1 = conditions: SK-LU-1, 10 nM pretreatment; Gallagher et al., 2004; cited from earlier work
cellular levels of cAMP = conditions: 1 μM, in the presence of 1 mM IBMX; n=3; U.S. Pat. No. 7,375,075; cited from earlier work
[3] = Plasma Ang-(1-7) level after intravenous infusion in mice; assay type: in vivo, mouse
COX-2 = COX-2 protein (Western blot) and mRNA (RT real-time PCR) in A549 cells; assay type: cell-based, human
Experimental: as §1, with “System.” for “System. The mixtures were heated at 50° C. for 2 min, at 95° C. for 10 min followed by 40 cycles at 95° C. for 15 sec and 60° C. for 1 min.”
Quiescent A549 lung cancer cells or tumor tissue cut into approximately 1-2 mm^2 size pieces were homogenized in phosphate-buffered saline (PBS; 50 mM NaPO4, pH=7.2, 100 mM NaCl). […] The protein concentration was measured by a modification of the Lowry method. […]

[4] = 24 μg/kg/h intravenous, 28 days, versus saline
[5] = 28 days infusion, versus saline

CC[C@H](C)[C@H](NC(=O)[C@H](Cc1ccc(O)cc1)NC(=O)[C@@H](NC(=O)[C@H](CCCNC(=N)N)NC(=O)[C@@H](N)CC(=O)O)C(C)C)C(=O)N[C@@H](Cc1c[nH]cn1)C(=O)N1CCC[C@H]1C(=O)O [Ang-(1-7), Asp-Arg-Val-Tyr-Ile-His-Pro]
Ang-(1-7) in the circulation ([1]; 24 μg/kg/h intravenous, 12 days, n=6-8, from 0.052±0.005): 0.185 ± 0.046 nM
tolerability: weight, blood pressure, heart rate ([1]; 24 μg/kg/hr): no change in weight, blood pressure, or heart rate
time-dependent increase in caspase-3 activity (caspase-3): about 2 fold
COX-1 mRNA (COX-1 mRNA): no change
capsular vessel number [2, 4]: no difference
down-regulation in VEGF mRNA in tumor tissue [2, 4]: greater than 50%
reduction in intratumoral vessel formation [2, 4]: > 75%
average tumor volume at end of infusion ([2]; 24 μg/kg/h intravenous, day 28, n=5, saline 326.3±47.2): 84.4±19.8 mm^3
body weight, food and water consumption during infusion ([2]; 24 μg/kg/h, 28 days): maintained their body weight as well as food and water consumption
gross pathology of major organs following sacrifice ([2]; 24 μg/kg/h, 28 days): no gross pathological abnormalities
APAF mRNA in tumor tissue [2, 5]: significant increase
caspase 3 mRNA in tumor tissue [2, 5]: significant increase
COX-2 protein, density of COX-2 immunoreactivity as a function of actin ([2]; Western blot of tumor tissue, n=5, saline 0.99±0.12): 0.41±0.09
tumor weight less than saline-infused ([2]; at sacrifice, day 28): 50%
tumor weight ([2]; at sacrifice, day 28, n=5, saline 0.28±0.03): 0.13 ± 0.01 g
proportion of apoptotic nuclei (cleaved caspase 3) ([2]; intravenous infusion, n=4-5, saline 18.8±9.4%): 75±4.6%
proportion of proliferating cells (Ki67) ([2]; n=5, saline 73±[…]): 49.5±9.4%
reduction of COX-2 protein ([2]; tumor tissue, versus saline): 59%
decrease in COX-2 mRNA ([2]; tumor xenografts, RT real-time PCR, versus saline): 57%
caspase-9 activity (caspase-9): no effect
reduction of serum-stimulated phosphorylation of ERK1 (ERK1): 61%
cellular levels of cAMP (cellular levels of cAMP): 131.9±9.7 % of basal
increase of plasma concentration over saline-infused animals ([3]; 24 μg/kg/h intravenous infusion, Ki-ras^G12C mice): 5 fold
plasma concentration of the heptapeptide ([3]; 24 μg/kg/h intravenous infusion, Ki-ras^G12C mice, 84 days, n=8, saline 38.7±11.45): 0.20132 ± 0.099 ng/mL
level at 2016 h ([3]; Ki-ras^G12C, mouse, plasma, iv, 24 ug/kg/h, read-out: plasma concentration of the heptapeptide): 0.201 ± 0.099 ng/mL
level at time molar at 1728 h ([3]; mouse, plasma, 24 ug/kg/h, 24 μg/kg/h intravenous, 72 days of infusion into mice, n=8, from 0.043±0.013): 0.224 ± 0.11 nM
COX-2 mRNA (COX-2; 100 nM, 2, 4 and 8 h): significant reduction
COX-2 protein (COX-2; 100 nM, 8-h treatment): marked decrease

From patent US20140296143A1, “Angiotensin-(1-7) As A Chemoprevention Agent” (Wake Forest Innovations, priority 2008, published 2014)
